{"source": "patent US20060035838A1", "about": "“Drug therapy for celiac sprue” (The Board of Trustees of the Leland Stanford Junior …, priority 2002, published 2006)", "molecules": {"B1": {"name": "human tTGase (Homo sapiens) (protein)", "chain": "MAEELVLERCDLELETNGRDHHTADLCREKLVVRRGQPFWLTLHFEGRNYEASVDSLTFSVVTGPAPSQEAGTKARFPLRDAVEEGDWTATVVDQQDCTLSLQLTTPANAPIGLYRLSLEASTGYQGSSFVLGHFILLFNAWCPADAVYLDSEEERQEYVLTQQGFIYQGSAKFIKNIPWNFGQFEDGILDICLILLDVNPKFLKNAGRDCSRRSSPVYVGRVVSGMVNCNDDQGVLLGRWDNNYGDGVSPMSWIGSVDILRRWKNHGCQRVKYGQCWVFAAVACTVLRCLGIPTRVVTNYNSAHDQNSNLLIEYFRNEFGEIQGDKSEMIWNFHCWVESWMTRPDLQPGYEGWQALDPTPQEKSEGTYCCGPVPVRAIKEGDLSTKYDAPFVFAEVNADVVDWIQQDDGSVHKSINRSLIVGLKISTKSVGRDEREDITHTYKYPEGSSEEREAFTRANHLNKLAEKEETGMAMRIRVGQSMNMGSDFDVFAHITNNTAEEYVCRLLLCARTVSYNGILGPECGTKYLLNLNLEPFSEKSVPLCILYEKYRDCLTESNLIKVRALLVEPVINSYLLAERDLYLENPEIKIRILGEPKQKRKLVAEVSLQNPLPVALEGCTFTVEGAGLTEEQKTVEIPDPVEAGEEVKVRMDLLPLHMGLHKLVVNFESDKLKAVKGFRNVIIGPA"}, "B2": {"name": "recombinant human tissue transglutaminase (Homo sapiens) (protein)", "chain": "B1 chain"}}, "key": {"[1]": {"biological_target": "T1, recombinant human tissue transglutaminase (Homo sapiens, UniProt P21980)", "T1 sequence (P21980 1-687)": "B1 chain", "assay": "Inhibition of tissue transglutaminase (residual tTG activity, glutamate dehydrogenase coupled assay)", "format": "biochemical", "set-up": "made in house"}, "[2]": {"biological_target": "T1, recombinant human tissue transglutaminase", "assay": "Catalysis of reactive glutamine substrates by tissue transglutaminase", "conditions": "read-out: KM (reactive motif Gln); X = Gln, substrate"}, "[3]": {"substrate": "NCCc1c[nH]cn1", "assay": "purified protein, by the assay type", "conditions": "other: nucleophilic amine co-substrate"}, "[4]": {"substrate": "CC(C)C[C@H](NC(=O)[C@H](CCC(N)=O)NC(=O)[C@@H]1CCCN1C(=O)[C@H](CCC(N)=O)NC(=O)[C@@H]1CCCN1)C(=O)N1CCC[C@H]1C(=O)N[C@@H](Cc1ccc(O)cc1)C(=O)O", "assay": "purified protein, by the assay type", "conditions": "other: X = Gln, substrate; pH 7.1; 30.0 °C"}, "[5]": {"substrate": "CC(=O)N1CCC[C@H]1C(=O)N[C@@H](CCC(N)=O)C(=O)N1CCC[C@H]1C(=O)N[C@@H](CCC(N)=O)C(=O)N[C@@H](CC(C)C)C(=O)N1CCC[C@H]1C(=O)N[C@@H](Cc1ccccc1)C(N)=O", "assay": "purified protein, by the assay type", "conditions": "other: X = Gln, substrate; pH 7.1; 30.0 °C"}, "[6]": {"conditions": "Table 3, sulfonamides and sulfonyl hydrazides, competitive inhibition constant, read-out: inhibition constant"}, "[7]": {"conditions": "X = acivicin, 200 mM MOPS pH 7.1, 30° C."}}, "note": "Like-named read-outs stand apart in the source and are kept apart here. *1 amine or outer side, *2 acyl side, *3 side chain or, on linkers, in order; H or OH if unused. Where a SMILES comes first, the peptide text is derived from it. [ ]: non-standard residue; d: D form. X1 = O=C([C@@H](N[*:1])[C@@H]1CC(Cl)=NO1)[*:2]; DON = [N-]=[N+]=CC(=O)CC[C@H](N)C(=O)O"}
{"molecule": "CCOC(=O)[C@H](CCS(=O)(=O)NN)NC(=O)OCc1ccccc1", "note": "[(S)-2-Benzyloxycarbonylamino-4-hydrazinosulfonyl-butyric acid ethyl ester]", "values": [{"measurement": "Ki", "setting": "[1]; [6]", "result": 2.2, "unit": "mM"}]}
{"molecule": "CCOC(=O)[C@H](CCS(=O)(=O)NNc1ccccc1)NC(=O)OCc1ccccc1", "note": "[(S)-2-Benzyloxycarbonylamino-4-phenylhydrazinosulfonyl-butyric acid ethyl ester]", "values": [{"measurement": "Ki", "setting": "[1]; [6]", "result": 0.13, "unit": "mM"}]}
{"molecule": "CCOC(=O)[C@H](CCS(N)(=O)=O)NC(=O)OCc1ccccc1", "note": "[(S)-2-Benzyloxycarbonylamino-4-sulfamoyl-butyric acid ethyl ester]", "values": [{"measurement": "Ki", "setting": "[1]; [6]", "result": 4.4, "unit": "mM"}]}
{"molecule": "CC(=O)N1CCC[C@H]1C(=O)N[C@@H](CCC(N)=O)C(=O)N1CCC[C@H]1C(=O)N[C@@H](CCC(=O)C=[N+]=[N-])C(=O)N[C@@H](CC(C)C)C(=O)N1CCC[C@H]1C(=O)N[C@@H](Cc1ccccc1)C(N)=O", "note": "[Ac—PQP—X—LPF—NH2, X=DON, Ac-Pr-Gl-Pr-DonLeu-Pr-PheNH2] (Ac-PQP[DON]LPF-NH2)", "values": [{"measurement": "kinh (reactive motif DON)", "setting": "[1]; X = 6-diazo-5-oxo-norleucine", "result": 0.2, "unit": "min⁻¹"}, {"measurement": "kinh/KI (reactive motif DON)", "setting": "[1]; X = 6-diazo-5-oxo-norleucine", "result": "2.9 × 10^6 min^−1M^−1"}]}
{"molecule": "COC(=O)C(CCC(=O)C=[N+]=[N-])NC(=O)OCc1ccccc1", "note": "(centres unmarked) [Cbz-X—OMe, X=DON]", "values": [{"measurement": "kinh (reactive motif DON)", "setting": "[1]; X = 6-diazo-5-oxo-norleucine", "result": 0.12, "unit": "min⁻¹"}, {"measurement": "kinh/KI (reactive motif DON)", "setting": "[1]; X = 6-diazo-5-oxo-norleucine", "result": 890, "unit": "min^−1M^−1"}, {"measurement": "Ki", "setting": "[1]; X = 6-diazo-5-oxo-norleucine, read-out: KI (reactive motif DON)", "result": 0.135, "unit": "mM"}]}
{"molecule": "COC(=O)[C@H](CCC(N)=O)NC(=O)OCc1ccccc1", "note": "[Cbz-X—OMe, X=Gln]", "values": [{"measurement": "Km", "setting": "[2]", "result": "> 30000", "unit": "µM"}]}
{"molecule": "N[C@H](C(=O)O)[C@@H]1CC(Cl)=NO1", "note": "[H—X—OH, X=Aci, acivicin, reference compound]", "values": [{"measurement": "kinh/KI (reactive motif Aci)", "setting": "[1]; X = acivicin", "result": 0.17, "unit": "min^−1M^−1"}, {"measurement": "kinh (reactive motif Aci)", "setting": "[1]; [7]", "result": 0.015, "unit": "min⁻¹"}, {"measurement": "Ki", "setting": "[1]; X = acivicin, 200 mM MOPS pH 7.1, 30° C., read-out: KI (reactive motif Aci)", "result": 87, "unit": "mM"}]}
{"molecule": "[N-]=[N+]=CC(=O)CC[C@H](N)C(=O)O", "note": "[H—X—OH, X=DON, 6-diazo-5-oxo-norleucine, reference compound]", "values": [{"measurement": "kinh (reactive motif DON)", "setting": "[1]; X = 6-diazo-5-oxo-norleucine", "result": 0.025, "unit": "min⁻¹"}, {"measurement": "kinh/KI (reactive motif DON)", "setting": "[1]; X = 6-diazo-5-oxo-norleucine", "result": 0.2, "unit": "min^−1M^−1"}]}
{"molecule": "CC(C)C[C@H](NC(=O)[C@@H](NC(=O)[C@@H]1CCCN1C(=O)[C@H](CCC(N)=O)NC(=O)[C@@H]1CCCN1)[C@@H]1CC(Cl)=NO1)C(=O)N1CCC[C@H]1C(=O)N[C@@H](Cc1ccc(O)cc1)C(=O)O", "note": "[PQP—X—LPY, X=Aci, Pro-Gln-Pro-Aci-Leu-Pro-Tyr] (H-PQP[X1]LPY-OH; C-terminus assumed)", "values": [{"measurement": "kinh/KI (reactive motif Aci)", "setting": "[1]; X = acivicin", "result": 18, "unit": "min^−1M^−1"}, {"measurement": "kinh (reactive motif Aci)", "setting": "[1]; [7]", "result": 0.014, "unit": "min⁻¹"}]}
{"molecule": "NS(=O)(=O)CCC(NC(=O)OCc1ccccc1)C(=O)NCC(=O)O", "note": "(centres unmarked) [Z-Sab-Gly]", "values": [{"measurement": "Ki", "setting": "[1]; Table 2, Sab derivatives, reversible competitive inhibition, read-out: KI", "result": 8, "unit": "mM"}]}
{"molecule": "B1", "values": [{"measurement": "Km", "setting": "[3]", "result": 40, "unit": "µM"}, {"measurement": "kcat", "setting": "[3]", "result": 0.333, "unit": "s⁻¹"}]}
{"molecule": "B2", "values": [{"measurement": "Km", "setting": "[4]", "result": 300, "unit": "µM"}, {"measurement": "Km", "setting": "[5]", "result": 400, "unit": "µM"}, {"measurement": "kcat", "setting": "[5]", "result": 0.667, "unit": "s⁻¹"}, {"measurement": "kcat/Km", "setting": "[5]", "result": 1620, "unit": "M⁻¹ s⁻¹"}]}
